# Test results reported in patent US20260356834A1, “ANTICONVULSIVE COMPOUNDS AND USES THEREOF” (Jazz Pharmaceuticals Research UK Limite, priority 2023, published 2026).
# System: C57BL/6J mice
# Experiment: mouse maximal electroshock seizure threshold model using minimal sample sizes (mini-MEST)
# Details: 30 min post dose
# Experimental: An increase in seizure threshold is indicative of an anticonvulsive effect.
# The ability of a test compound to alter the stimulus intensity, expressed as current (mA), required to induce the presence of tonic hind limb extensor convulsions, is assessed in the MEST.
# In the mini-MEST test, a lower n number is used.
# Male C57BL/6J mice were housed in groups of 6. Mice were kept under standard conditions (12 hour light cycle; light intensity of 25-75 lux) and fed a diet of certified rodent CR 14% protein rodent diet (LabDiet® 4CR4). Mice were 8-9 weeks old at the start of the study.
# Naïve mice were acclimatised to the procedure room in their home cages for up to 7 days, with food and water available ad libitum.
# All animals were weighed at the beginning of the study and randomly assigned to treatment groups based on a mean distribution of body weight across groups.
# The first animal within a treatment group was given a shock at the expected or estimated CC50 current. For subsequent animals, the current was lowered or raised depending on the convulsions outcome from the preceding animal in log scale intervals.
# Data generated from each treatment group were used to calculate the CC50±SEM values for the treatment group.
# Vehicle: (5% ethanol, 10% Solutol® (Kolliphor® HS 15), 85% saline). 1 mL of ethanol, 2 mL of Solutol™ were warmed to 60 °C, in 17 mL of 0.9% saline.
# Test compounds: 5-50 mg/kg in a 1:2:17 ethanol:Solutol®:saline formulation (as used for vehicle).
SMILES,CC50 +/− SEM (30 mg/kg i.p.) [mA],Change from vehicle (CC50) (30 mg/kg i.p.) [%],CC50 +/− SEM (50 mg/kg p.o.) [mA],Change from vehicle (CC50) (50 mg/kg p.o.) [%],CC50 +/− SEM (25 mg/kg p.o.) [mA],Change from vehicle (CC50) (25 mg/kg p.o.) [%]
"CCCc1cc(O)c(-c2cccn3ccnc23)c(O)c1 [Compound 1, 2-(imidazo[1,2-a]pyridin-8-yl)-5-propylbenzene-1,3-diol]",92.9 ± 1.1,200,,,,
"CCCc1cc(O)c(-c2c(C)ccn3cc(C)nc23)c(O)c1 [Compound 3, 2-(2,7-Dimethylimidazo[1,2-a]pyridin-8-yl)-5-propylbenzene-1,3-diol]",35.3 ± 1.1,32,,,,
"CCCc1cc(O)c(-c2c(C(F)(F)F)ccn3ccnc23)c(O)c1 [Compound 5, 2-(7-trifluoromethylimidazo[1,2-a]pyridin-8-yl)-5-propylbenzene-1,3-diol]",<33.0,<12,,,,
"CCCc1cc(O)c(-c2c(Cl)ccn3ccnc23)c(O)c1 [Compound 6, 2-(7-Chloroimidazo[1,2-a]pyridin-8-yl)-5-propylbenzene-1,3-diol]",49.9 ± 1.9,70,,,,
"CCCc1cc(O)c(-c2c(C)c(C)cn3ccnc23)c(O)c1 [Compound 7, 2-(6,7-Dimethylimidazo[1,2-a]pyridin-8-yl)-5-propylbenzene-1,3-diol]",53.5 ± 1.1,100,,,,
"CCCc1cc(O)c(-c2c(F)ccn3ccnc23)c(O)c1 [Compound 8, 2-(7-Fluoroimidazo[1,2-a]pyridin-8-yl)-5-propylbenzene-1,3-diol]",65.8 ± 1.9,145,,,,
"CCCc1cc(O)c(-c2c(C)ccn3c(C)cnc23)c(O)c1 [Compound 9, 2-(3,7-Dimethylimidazo[1,2-a]pyridin-8-yl)-5-propylbenzene-1,3-diol]",58.6 ± 1.6,152,,,,
"CCCc1cc(O)c(-c2c(C)ccn3c(Cl)cnc23)c(O)c1 [Compound 10, 2-(3-Chloro-7-methylimidazo[1,2-a]pyridin-8-yl)-5-propylbenzene-1,3-diol]",<33.0 ± 0.0,<29,,,,
"CCCc1cc(O)c(-c2c(C)ccn3cc(Cl)nc23)c(O)c1 [Compound 12, 2-(2-Chloro-7-methylimidazo[1,2-a]pyridin-8-yl)-5-propylbenzene-1,3-diol]",57.3 ± 1.9,145,,,,
"CCCCCc1cc(O)c(-c2c(C)ccn3ccnc23)c(O)c1 [Compound 13, 2-(7-Methylimidazo[1,2-a]pyridin-8-yl)-5-pentylbenzene-1,3-diol]",92.9 ± 1.1,263,,,,
"Cc1ccn2ccnc2c1-c1c(O)cccc1O [Compound 14, 2-(7-Methylimidazo[1,2-a]pyridin-8-yl)benzene-1,3-diol]",<33.0,<52,,,,
"CCCc1cc(O)c(-c2c(C)ccn3cc(C(F)(F)F)nc23)c(O)c1 [Compound 15, 2-(2-Trifluoromethyl-7-methylimidazo[1,2-a]pyridin-8-yl)-5-propylbenzene-1,3-diol]",35.3 ± 1.1,62,,,,
"CCCc1cc(O)c(-c2c(C)c(C(F)(F)F)cn3ccnc23)c(O)c1 [Compound 16, 2-(6-Trifluoromethyl-7-methylimidazo[1,2-a]pyridin-8-yl)-5-propylbenzene-1,3-diol]",<33.0,<35,,,,
"CCCCCc1cc(O)c(-c2c(C)c(Cl)cn3ccnc23)c(O)c1 [Compound 17, 2-(6-Chloro-7-methylimidazo[1,2-a]pyridin-8-yl)-5-pentylbenzene-1,3-diol]",80.9 ± 10.8,231,,,,
"CCCc1cc(O)c(-c2c(C3CC3)ccn3ccnc23)c(O)c1 [Compound 18, 2-(7-Cyclopropylimidazo[1,2-a]pyridin-8-yl)-5-propylbenzene-1,3-diol]",80.9 ± 1.1,216,49.9 ± 1.9,86,,
"Cc1c(Cl)cn2ccnc2c1-c1c(O)cc(Cl)cc1O [Compound 19, 5-Chloro-2-(6-chloro-7-methylimidazo[1,2-a]pyridin-8-yl)benzene-1,3-diol]",,,57.3 ± 1.9,86,,
"CCC(C)(C)c1cc(O)c(-c2c(C)c(Cl)cn3ccnc23)c(O)c1 [Compound 20, 2-(6-Chloro-7-methylimidazo[1,2-a]pyridin-8-yl)-5-(tert-pentyl)benzene-1,3-diol]",40.6 ± 1.1,59,,,,
"CCC(C)(C)c1cc(O)c(-c2c(C)ccn3ccnc23)c(O)c1 [Compound 21, 2-(7-Methylimidazo[1,2-a]pyridin-8-yl)-5-(tert-pentyl)benzene-1,3-diol]",<33.0,,,,,
"Cc1ccn2ccnc2c1-c1c(O)cc(C2CCCC2)cc1O [Compound 22, 5-Cyclopentyl-2-(7-methylimidazo[1,2-a]pyridin-8-yl)benzene-1,3-diol]",57.3 ± 1.9,124,,,,
"CCCc1cc(O)c(-c2c(C)c(C3CC3)cn3ccnc23)c(O)c1 [Compound 23, 2-(6-Cyclopropyl-7-methylimidazo[1,2-a]pyridin-8-yl)-5-propylbenzene-1,3-diol]",<33.0,<52,,,,
"Cc1c(F)cn2ccnc2c1-c1c(O)cc(CCC(F)(F)F)cc1O [Compound 24, 2-(6-Fluoro-7-methylimidazo[1,2-a]pyridin-8-yl)-5-(3,3,3-trifluoropropyl)benzene-1,3-diol]",,,>131.0,>424,92.9 ± 1.1,272
